Common to all, as to assay type: cell-based
For assay [1], the system named is human eosinophils (LTC4 production). Kind of assay: LTC4 production by human eosinophils (priming, A23187 stimulation, ELISA). The protocol:
(§1) FIG. 2A is a graph illustrating the effect of arachidonic acid (AA) and oleic acid (OA) on induction of lipid body formation (black) and priming effects (white) for enhanced leukotriene C4 (LTC4) by human eosinophils. Eosinophils (10^6 /mL) were stimulated for one hour with arachidonic acid (3.7, 7.5, 15 μM) or oleic acid (2.5, 5, 10 μM). Lipid bodies were enumerated using light microscopy following osmium staining. The concentration of LTC4 in the supernatant was measured by ELISA after incubation with A23187 (0.5 μM) for 15 minutes at 37° C. Data are expressed as mean from 2 independent assays performed in duplicate.
(§2) FIG. 5B is a graph showing that aspirin inhibits cis-unsaturated fatty acid-induced priming for enhanced leukotriene C4 (LTC4) production in human eosinophils. Striped and open columns represent vehicle treated cells and aspirin treated cells, respectively. Cells (10^6 /mL) were pretreated with aspirin (10 μg/mL) or vehicle for one hour and then stimulated with OA (10 μM) or vehicle for one hour. The concentration of LTC4 in the supernatant was measured by ELISA after incubation with A23187 (0.5 μM) for 15 minutes at 37° C. Data are expressed as mean from 2-4 independent assays performed in duplicate. The statistically significant difference between the vehicle alone and the agonist is represented by a cross. Statistically significant differences due to pretreatment with aspirin are indicated by an asterisk.
(§3) After the incubation time, a sample was taken for lipid body enumeration and the cells were washed in Ca^++ /Mg^++ free HBSS. Leukocytes were resuspended in 1 mL of HBSS containing Ca^++ /Mg^++ and then stimulated with A23187 (0.5 μM) for 15 min. The reaction was stopped on ice, and the samples were centrifuged at 1500 rpm for 10 min at 4° C. The concentrations of PGE2, LTB4, and LTC4 in the supernatants were assayed by ELISA according to the manufacturer's instructions (Cayman, Ann Arbor, Mich.).

The next assay relates to human eosinophils. Kind of assay: cis-unsaturated fatty acid-induced lipid body formation in human eosinophils. The protocol: Vehicle alone is represented by the dark columns. AA and OA are represented by the striped and gray columns, respectively. Agonist plus the pretreatment with aspirin is represented by the cross-hatched columns. Cells (10^6 /mL) were pretreated with aspirin (10 μg/mL) or vehicle for one hour and then stimulated arachidonic acid (15 μM), oleic acid (10 μM) or vehicle for one hour. Lipid bodies were enumerated by light microscopy following osmium staining. Each point represents the mean±SEM from fifty consecutively counted cells. The statistically significant difference between the vehicle alone and the agonist is represented by a cross. Statistically significant differences due to pretreatment with aspirin are indicated by an asterisk.
Neutrophils were purified from fresh human blood obtained by venipuncture from healthy adult volunteers and collected into acidified citrate. After addition of 6% dextran 70 (McGaw, Irvine, Calif.), RBCs were allowed to sediment for 1 hour at room temperature. The leukocyte-rich supernatant was overlaid onto an equal volume of Ficoll-Paque gradient (Piscataway, N.J.), and centrifuged at 400×g for 20 min. PMNs (>95% pure, rest being eosinophils) were recovered from the pellet and washed in Ca^++ /Mg^++ free HBSS. Residual RBCs were lysed with hypotonic saline. Eosinophils (80% pure, the rest being neutrophils) were obtained from a donor with idiopathic hypereosinophilic syndrome using the same procedure as described above.
Human leukocytes (10^6 cells/mL) were incubated with varying concentrations of arachidonic acid (AA), oleic acid (OA) or vehicle at 37° C. in a 5% CO2 /95% O2 atmosphere, and after 1 hour leukocytes (10^5 cells per slide) were cytocentrifuged (550 rpm, 5 min) onto glass slides. During inhibitory studies, neutrophils were pretreated for 1 hour with varying concentrations of enzyme inhibitors, protein synthesis inhibitors, or vehicle as indicated. When PKC inhibitors were used, the pre-incubation time was reduced to 30 minutes to avoid toxic effects to the cells. The cell viability, determined by trypan blue dye exclusion at the end of each experiment, was always greater than 90%. Stock solutions for A23187, D609, U-73122, and indomethacin were prepared in DMSO and stored at -20° C. Aliquots were diluted in Ca^++ /Mg^++ fee HBSS to the indicated concentration immediately prior to use. […]
Results were expressed as mean±SEM and were analyzed statistically by means of the analysis of variance followed by the Newman-Keuls-Student test with the level of significance set at p<0.05. Correlation coefficients were determined by linear regression, and correlation analysis was performed by Fisher's r to z transformation with the level of significance set at p<0.05.

Assay [2] deals with human neutrophils (LTB4 production). The experiment in a line: LTB4 production by human neutrophils (priming, A23187 stimulation, ELISA). The protocol: as §1, with “FIG. 1A” for “FIG. 2A”, “leukotriene B4 (LTB4)” for “leukotriene C4 (LTC4)”, “human neutrophils. Neutrophils” for “human eosinophils. Eosinophils”, “of LTB4” for “of LTC4”, “from 2-3” for “from 2”
as §2, with “5A” for “5B”, “B4 (LTB4)” for “C4 (LTC4)”, “neutrophils.” for “eosinophils.”, “LTB4” for “LTC4”
as §3
(In an ELISA, binding on a coated surface is turned into a signal by an enzyme label.)

Where [3] appears, read: Homo sapiens, Eosinophil, 1 h, read-out: fold increase in production of LTC4.
Setting [4] is: Homo sapiens, Neutrophil, 1 h, read-out: fold increase in production of LTB4.
The mark [5] stands for this setting: cells not pre-stimulated with cis-unsaturated fatty acids.

The structures appear in SMILES notation.

With `CCCCC/C=C\C/C=C\C/C=C\C/C=C\CCCC(=O)O` [arachidonic acid], the fold induction at 15 µM in assay [1] (setting [3]) was 1.4; in assay [2] (setting [4]), 2.3. The “increase in production of LTC4” value in assay [1] (eosinophils) was “dose-dependent increase in production”. The “increase in number of lipid bodies” value in the assay on human eosinophils was “dose-dependent increase in the number of lipid bodies”. The “increase in production of LTB4” value in assay [2] (neutrophils) was “dose-dependent increase in production”.
In the case of `CC(=O)Oc1ccccc1C(=O)O` [aspirin], the “inhibition of calcium ionophore-induced LTC4 production” value in assay [1] (setting [5]) is “failed to inhibit”. Also, the “inhibition of oleic acid-induced priming for enhanced LTC4 production” value in assay [1] (eosinophils, 10 μg/mL, OA 10 μM) was “significantly inhibited”. Moreover, in the assay on human eosinophils (10 μg/mL), the “inhibition of arachidonic acid-induced lipid body formation” value was “significantly inhibited” and the “inhibition of oleic acid-induced lipid body formation” value is on record as “significantly inhibited”. Besides, in assay [2] (setting [5]), the “inhibition of calcium ionophore-induced LTB4 production” value is listed as “failed to inhibit”. Further, the “inhibition of oleic acid-induced priming for enhanced LTB4 production” value in assay [2] (neutrophils, 10 μg/mL, OA 10 μM) is listed as “significantly inhibited”.
For the compound `CCCCCCCC/C=C\CCCCCCCC(=O)O` [oleic acid], the fold induction at 10 µM in assay [1] (setting [3]) came to 1.7; in assay [2] (setting [4]), 2. For the same compound, in assay [1] (eosinophils), the “increase in production of LTC4” value is reported as “dose-dependent increase in production”. Further, in assay [1] (oleic acid, leukocytes, p<0.05), the “correlation (r) between number of lipid bodies and priming for enhanced LTC4 release” value stood at 0.95. Besides, the “increase in number of lipid bodies” value in the assay with human eosinophils is “dose-dependent increase in the number of lipid bodies”. In addition, the “increase in production of LTB4” value in assay [2] (neutrophils) is “dose-dependent increase in production”. For the same compound, the “correlation (r) between number of lipid bodies and priming for enhanced LTB4 release” value in assay [2] (oleic acid, leukocytes, p<0.05) is listed as 0.96.

Source of the values: patent publication US5837548A, “Treatment of inflammation by inhibition of lipid body formation” (Beth Israel Hospital, priority 1995, dated 1998).
